Results published in patent US20130216634A1, “Herbal Supplement Prepared From Pelargonium Citronellum” (priority 2011, published 2013).
Like-named read-outs stand apart in the source and are kept apart here.

Experiments:
[1] = tested on: mouse; details: cited from earlier work
[2] = tested on: adult human; assay: LD50, adult human (equivalent / reported); details: 143 lb (65 kg) adult human
[3] = tested on: 25 different bacterial species, 20 different Listeria monocytogenes cultivars, three different fungi; details: singly or in combination, in the percentages listed by the ISO; cited from earlier work

| SMILES | LD50 ([1]; intraperitoneal administration) [mg/kg] | LD50 ([1]; intravenous) [mg/kg] | LD50 equivalent for adult human ([2]; intraperitoneally injected) [milligrams] | LD50 equivalent for adult human ([2]; intravenously injected) [mg] | Bioactivity (antibacterial, antifungal, anti-oxidant) [3] |
| --- | --- | --- | --- | --- | --- |
| CCC(C)CC(C)N (stereo not drawn) [methylhexaneamine, Methylhexaneamine] | 185 | 39 | 978 | 206 |  |
| CC(C)=CCCC(C)CCO (stereo not drawn) [citronellol] |  |  |  |  | very potent |
| CC(C)=CCC/C(C)=C/CO [geraniol] |  |  |  |  | very potent |
